By EC50 is commonly meant the concentration at which the effect is half-maximal.

Each structure is given as a SMILES string.

Here are results for 16 molecules from patent US9796711B2, “Substituted pyrazolo[3,4-b]pyridin-6-carboxylic acids and method of use” (AbbVie S.àr.l., priority 2015, dated 2017).

The target of experiment [1] is T1, ΔF508-CFTR (Homo sapiens, UniProt P13569, DEL508-508).
T1 construct: host or cells: CFBE41o-, doxycycline-inducible
Briefly: CFTR cell surface levels using HRP-tagged ΔF508-CFTR expressing CFBE cells, intrinsic corrector capacity. The experiment is classed as cell-based. As to conditions: for EC50: read-out: EC50. Put shortly: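 Here the cells express ΔF508-CFTR with horseradish peroxidase inserted in extracellular loop 4, so only rescued channel at the surface gives luminescent signal. Compounds act on their own, 20 h at the reduced temperature of 33 °C; values are percent activity relative to DMSO and a 3 μM corrector.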

Experiment [2] deals with T1, ΔF508-CFTR. Kind of experiment: CFTR cell surface levels using HRP-tagged ΔF508-CFTR expressing CFBE cells, in the presence of a co-corrector. The experiment is classed as cell-based. The following applies: HRP-tagged ΔF508-CFTR expressing CFBE cells, in the presence of 3 μM co-corrector; for EC50: read-out: EC50. The method, boiled down:
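Cells were seeded with 0.5 μg/mL doxycycline and held 68 h at 37 °C. Test compounds plus 3 μM co-corrector (final 0.1% DMSO) were then added for 20 h at 33 °C. Washed cells received HRP substrate, and luminescence was normalized between DMSO and 3 μM co-corrector controls.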

The mark [3] stands for this setting: HRP-tagged ΔF508-CFTR expressing CFBE cells, intrinsic corrector capacity (no co-corrector), 33° C., 20 hours.
The mark [4] stands for this setting: HRP-tagged ΔF508-CFTR CFBE41o- cells, compounds alone (intrinsic corrector capacity), 20 hours at 33° C., positive control 3 μM corrector.
The mark [5] stands for this setting: HRP-tagged ΔF508-CFTR CFBE41o- cells, compounds alone (intrinsic corrector capacity), 20 hours at 33° C.

T1 sequence (P13569 with tags, fused parts or gaps DEL508-508): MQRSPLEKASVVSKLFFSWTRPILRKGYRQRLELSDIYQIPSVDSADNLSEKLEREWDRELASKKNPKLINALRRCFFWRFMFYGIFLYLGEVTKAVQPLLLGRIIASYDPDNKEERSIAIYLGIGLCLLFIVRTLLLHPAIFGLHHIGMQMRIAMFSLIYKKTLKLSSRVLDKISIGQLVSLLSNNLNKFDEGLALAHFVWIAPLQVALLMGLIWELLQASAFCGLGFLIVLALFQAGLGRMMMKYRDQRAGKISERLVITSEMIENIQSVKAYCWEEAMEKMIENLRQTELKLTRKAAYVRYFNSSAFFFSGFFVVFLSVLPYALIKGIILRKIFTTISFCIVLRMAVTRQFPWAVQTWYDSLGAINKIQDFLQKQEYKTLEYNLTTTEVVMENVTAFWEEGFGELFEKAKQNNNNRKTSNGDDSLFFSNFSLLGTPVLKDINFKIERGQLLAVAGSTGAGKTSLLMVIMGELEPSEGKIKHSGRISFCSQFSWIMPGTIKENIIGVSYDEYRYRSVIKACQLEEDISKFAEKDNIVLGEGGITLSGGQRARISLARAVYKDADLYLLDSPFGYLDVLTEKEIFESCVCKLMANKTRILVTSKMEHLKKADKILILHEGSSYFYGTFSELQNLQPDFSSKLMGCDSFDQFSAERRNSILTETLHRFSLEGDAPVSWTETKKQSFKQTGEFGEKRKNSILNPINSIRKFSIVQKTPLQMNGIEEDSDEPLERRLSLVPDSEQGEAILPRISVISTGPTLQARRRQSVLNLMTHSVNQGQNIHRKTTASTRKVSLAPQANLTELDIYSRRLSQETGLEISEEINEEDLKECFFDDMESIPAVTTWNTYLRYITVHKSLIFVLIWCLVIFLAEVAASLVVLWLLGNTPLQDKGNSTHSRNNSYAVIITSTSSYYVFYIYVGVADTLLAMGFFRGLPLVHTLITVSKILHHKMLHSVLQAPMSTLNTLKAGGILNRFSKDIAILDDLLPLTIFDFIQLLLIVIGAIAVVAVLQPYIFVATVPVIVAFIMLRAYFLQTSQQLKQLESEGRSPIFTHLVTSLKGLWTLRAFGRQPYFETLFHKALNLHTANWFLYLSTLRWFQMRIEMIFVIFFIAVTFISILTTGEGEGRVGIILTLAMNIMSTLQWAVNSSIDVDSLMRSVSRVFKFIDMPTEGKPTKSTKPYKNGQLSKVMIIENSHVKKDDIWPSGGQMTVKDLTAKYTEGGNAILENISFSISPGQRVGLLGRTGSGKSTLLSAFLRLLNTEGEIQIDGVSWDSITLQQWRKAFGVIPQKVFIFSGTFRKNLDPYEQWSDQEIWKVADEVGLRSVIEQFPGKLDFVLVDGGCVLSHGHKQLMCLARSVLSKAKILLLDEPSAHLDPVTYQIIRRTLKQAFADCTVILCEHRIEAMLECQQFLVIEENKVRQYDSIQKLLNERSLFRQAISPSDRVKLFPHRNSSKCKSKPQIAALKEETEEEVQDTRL

As for `O=C(O)c1cc(N2CCC(C(F)(F)F)C2)c2c(C3CCC3)nn(-c3ccccc3)c2n1` (stereo not drawn) [compound 442, 3-cyclobutyl-1-phenyl-4-[3-(trifluoromethyl)pyrrolidin-1-yl]-1H-pyrazolo[3,4-b]pyridine-6-carboxylic acid], on ΔF508-CFTR [1] (setting [3]), the “% Activation” value is given as 137.7% and the EC50 came to 1080 nM. At ΔF508-CFTR [2], the “% Activation” value amounted to 321.95% and the EC50 is 655 nM.
Take `CC(C)c1nn(C2CCCN(CC(F)(F)F)C2)c2nc(C(=O)O)cc(-c3ccc(N4CCOCC4)cc3)c12` (stereo not drawn) [compound 161, 4-[4-(morpholin-4-yl)phenyl]-3-(propan-2-yl)-1-[1-(2,2,2-trifluoroethyl)piperidin-3-yl]-1H-pyrazolo[3,4-b]pyridine-6-carboxylic acid]: the “% Activation” value on ΔF508-CFTR [1] (setting [4]) was determined as 111.83%; on ΔF508-CFTR [2] it was 333.87%. Moreover, the half-maximal effective concentration (EC50) was determined as 921 nM on ΔF508-CFTR [1] (setting [5]) and 795 nM at ΔF508-CFTR [2].
Regarding `CC(C)c1nn(-c2ccnc(N3CCCC3)c2)c2nc(C(=O)O)cc(-c3ccc(N4CCC(C#N)CC4)cc3)c12` [compound 392, 4-[4-(4-cyanopiperidin-1-yl)phenyl]-3-(propan-2-yl)-1-[2-(pyrrolidin-1-yl)pyridin-4-yl]-1H-pyrazolo[3,4-b]pyridine-6-carboxylic acid], the results for the “% Activation” value on ΔF508-CFTR [1] (setting [4]) and on ΔF508-CFTR [2] were 302% and 519.35%, respectively. Besides, the EC50 worked out at 345 nM at ΔF508-CFTR [1] (setting [5]) and 323 nM at ΔF508-CFTR [2].
For `O=C(O)c1cc(N2CCC(OCC(=O)N3CCCC3)CC2)c2c(C3CCC3)nn(-c3ccccc3)c2n1` [compound 367, 3-cyclobutyl-4-{4-[2-oxo-2-(pyrrolidin-1-yl)ethoxy]piperidin-1-yl}-1-phenyl-1H-pyrazolo[3,4-b]pyridine-6-carboxylic acid], the “% Activation” value amounted to 239.55% on ΔF508-CFTR [1] (setting [4]) and 406.35% on ΔF508-CFTR [2]. Further, the EC50 at ΔF508-CFTR [1] (setting [5]) was 1010 nM; on ΔF508-CFTR [2], 669 nM.
On to `O=C(O)c1cc(N2CC[C@H](F)C2)c2c(C3CCC3)nn(-c3ccccc3)c2n1` [compound 527, 3-cyclobutyl-4-[(3S)-3-fluoropyrrolidin-1-yl]-1-phenyl-1H-pyrazolo[3,4-b]pyridine-6-carboxylic acid], for which, at ΔF508-CFTR [1] (setting [3]), the “% Activation” value turned out to be 100.1% and the EC50 worked out at 1160 nM. Further, at ΔF508-CFTR [2], the “% Activation” value is on record as 291.2% and the EC50 was 1030 nM.
On to `CC(C)c1nn(C2CCCCC2)c2nc(C(=O)O)cc(-c3cnn(C(C)C)c3)c12` [compound 361, 1-cyclohexyl-3-(propan-2-yl)-4-[1-(propan-2-yl)-1H-pyrazol-4-yl]-1H-pyrazolo[3,4-b]pyridine-6-carboxylic acid], for which the “% Activation” value on ΔF508-CFTR [1] (setting [4]) was 80.015%; at ΔF508-CFTR [2], 227.65%. Moreover, the figures for the EC50 on ΔF508-CFTR [1] (setting [5]) and on ΔF508-CFTR [2] were 1540 nM and 1160 nM, respectively.
With `O=C(O)c1cc(N2CCC(CN3CCCCC3)CC2)c2c(C3CCC3)nn(-c3ccccc3)c2n1` [compound 686, 3-cyclobutyl-1-phenyl-4-{4-[(piperidin-1-yl)methyl]piperidin-1-yl}-1H-pyrazolo[3,4-b]pyridine-6-carboxylic acid], on ΔF508-CFTR [1] (setting [3]), the “% Activation” value came out at 240.4% and the 50% effective concentration (EC50) amounted to 1670 nM. Moreover, at ΔF508-CFTR [2], the “% Activation” value was 431.1% and the EC50 came to 237 nM.
The matching figures for `COC1CN(C2CCN(c3cc(C(=O)O)nc4c3c(C3CCC3)nn4-c3ccc(F)cc3)CC2)C1` [compound 873, 3-cyclobutyl-1-(4-fluorophenyl)-4-[4-(3-methoxyazetidin-1-yl)piperidin-1-yl]-1H-pyrazolo[3,4-b]pyridine-6-carboxylic acid]: 139.8%, 3340 nM, 332.45% and 1850 nM.
Regarding `CN1CCN(Cc2cc(C(=O)O)nc3c2c(C2CCC2)nn3-c2ccc(F)cc2)CC1` [compound 858, 3-cyclobutyl-1-(4-fluorophenyl)-4-[(4-methylpiperazin-1-yl)methyl]-1H-pyrazolo[3,4-b]pyridine-6-carboxylic acid], the “% Activation” value on ΔF508-CFTR [1] (setting [3]) worked out at 29.24%. On ΔF508-CFTR [2], the “% Activation” value is reported as 168.6% and the EC50 was 3180 nM.
`O=C(O)c1cc(N2CCN(C3CCC3)CC2)c2c(C3CCC3)nn(-c3ccccc3)c2n1` [compound 450, 3-cyclobutyl-4-(4-cyclobutylpiperazin-1-yl)-1-phenyl-1H-pyrazolo[3,4-b]pyridine-6-carboxylic acid]: the “% Activation” value on ΔF508-CFTR [1] (setting [3]) worked out at 165.85%; at ΔF508-CFTR [2], 377.1%. For the same molecule, the results for the concentration giving a half-maximal response (EC50) at ΔF508-CFTR [1] (setting [3]) and at ΔF508-CFTR [2] were 1090 nM and 456 nM, respectively.
As to `COCC1CCN(c2cc(C(=O)O)nc3c2c(C(C)C)nn3-c2cccc(N(C)C)c2)CC1` [compound 368, 1-[3-(dimethylamino)phenyl]-4-[4-(methoxymethyl)piperidin-1-yl]-3-(propan-2-yl)-1H-pyrazolo[3,4-b]pyridine-6-carboxylic acid], the “% Activation” value at ΔF508-CFTR [1] (setting [4]) was 357.3%; on ΔF508-CFTR [2], 515.5%. The EC50 at ΔF508-CFTR [1] (setting [5]) was 521 nM; at ΔF508-CFTR [2], 290 nM.
The matching figures for `Cc1nn(-c2ccccc2)c2nc(C(=O)O)cc(OCC3(S(C)(=O)=O)CCC3)c12` [compound 384, 4-{[1-(methanesulfonyl)cyclobutyl]methoxy}-3-methyl-1-phenyl-1H-pyrazolo[3,4-b]pyridine-6-carboxylic acid]: 8.1785%, 123%, 5010 nM and 5010 nM.
`CN1CCN(C2CCN(c3cc(C(=O)O)nc4c3c(C3CCC3)nn4-c3ccccc3)CC2)CC1` [compound 757, 3-cyclobutyl-4-[4-(4-methylpiperazin-1-yl)piperidin-1-yl]-1-phenyl-1H-pyrazolo[3,4-b]pyridine-6-carboxylic acid]: on ΔF508-CFTR [1] (setting [3]), the “% Activation” value was determined as 208.45% and the EC50 is 319 nM. Besides, on ΔF508-CFTR [2], the “% Activation” value amounted to 489.6% and the half-maximal effective concentration (EC50) worked out at 402 nM.
The like results for `COC1CCN(c2cc(C(=O)O)nc3c2c(C(C)C)nn3-c2ccnc(N3CCCC3)c2)CC1` [compound 412, 4-(4-methoxypiperidin-1-yl)-3-(propan-2-yl)-1-[2-(pyrrolidin-1-yl)pyridin-4-yl]-1H-pyrazolo[3,4-b]pyridine-6-carboxylic acid] were, in that order, 215.6%, 460 nM, 387.2% and 307 nM.
In the case of `COCCN(CCOC)c1ccc(-c2cc(C(=O)O)nc3c2c(C(C)C)nn3C2CCCCC2)cn1` [compound 275, 4-{6-[bis(2-methoxyethyl)amino]pyridin-3-yl}-1-cyclohexyl-3-(propan-2-yl)-1H-pyrazolo[3,4-b]pyridine-6-carboxylic acid], the “% Activation” value on ΔF508-CFTR [1] (setting [4]) worked out at 173.8%; on ΔF508-CFTR [2] it was 371.35%. In addition, the values for the EC50 at ΔF508-CFTR [1] (setting [5]) and on ΔF508-CFTR [2] were 923 nM and 736 nM, respectively.
In the case of `CCC1(F)CN(c2cc(C(=O)O)nc3c2c(C2CCC2)nn3-c2ccccc2)C1` [compound 530, 3-cyclobutyl-4-(3-ethyl-3-fluoroazetidin-1-yl)-1-phenyl-1H-pyrazolo[3,4-b]pyridine-6-carboxylic acid], the “% Activation” value is 90.17% at ΔF508-CFTR [1] (setting [3]) and 254.15% at ΔF508-CFTR [2]. Moreover, the EC50 on ΔF508-CFTR [1] (setting [3]) was 718 nM; on ΔF508-CFTR [2] it was 542 nM.
